From US20180177749A1, “USE OF CYP EXPRESSION TO DIRECT THERAPEUTIC INTERVENTION IN CANCER” (REGENTS OF THE UNIVERSITY OF MINNESOTA, priority 2016, published 2018)
pIC50: −log10 of the molar value. Entries after “also recorded” stand apart in the source; their conditions may differ. Where two headings read alike, the source gives them in different places.

How the values were obtained:
MCF-7 cells [1] = test: Western blot of signaling proteins, MCF-7; format: cell-based, human
Experimental: (§1) RIPA extracts of cells were prepared as described previously, in the presence of protease inhibitors and phosphatase inhibitors. Protein concentrations were determined by the micro-bicinchoninic acid (BCA) method, and 30 μg of protein was used for each lane of the SDS-polyacrylamide gel Western blot. Relative protein expression was estimated using GAPDH or β-actin as an internal standard.

MCF-7 cells [2] = test: JC-1 mitochondrial membrane potential staining, MCF-7; format: cell-based, human; conditions: HBB 20 μM 4 hours, (±)-14,15-EET 1 μM
Experimental: (§2) Cells were grown in chamber slides at 37° C. with 5% CO2 and treated with DMSO or HBB for 4 hours before JC-1 dye was added for the MCF-7 or MDA-MB-231 cell line. […] Images of red fluorescence (590 nm) and green fluorescence (530 nm) were acquired using an Olympus 1X70 microscope fitted with an Olympus DP70 digital camera (Olympus, Tokyo, Japan).

MDA-MB-231 cells = test: JC-1 mitochondrial membrane potential staining, MDA-MB-231; format: cell-based, human; conditions: HBB 20 μM 4 hours, (±)-14,15-EET 1 μM
Experimental: as §2

MDA-MB-231 cell line = test: Western blot of AMPK phosphorylation, MDA-MB-231; format: cell-based, human; conditions: 1.0 μM, 24 hours
Experimental: as §1

MCF-7 cells [3] = test: RPPA analysis of MCF-7 cells treated with (±)-14,15-EET; format: cell-based, human; conditions: 15 minutes
Source text: It is proposed that HBB inhibition of ER+ tumor growth is due, in part, to direct inhibition of membrane associated non-mitochondrial CYP3A4, thereby suppressing Stat3 and mTOR signaling due to suppression of EET biosynthesis, resulting in AMPK activation (FIG. 6d, membrane diagram). […] In this model, EETs inhibit AMPK through unknown mechanisms. […] This model therefore proposes two sites of CYP3A4 activity, at cellular membranes and at mitochondria.

MCF-7 = test: MTT cell proliferation assay, MCF-7; format: cell-based; conditions: Homo sapiens, MCF7
Experimental: Cells were grown at 37° C. in a 5% CO2 incubator. […] MTT was then added (5 mg/ml), and after 2 h of incubation, the plates were centrifuged. The supernatant was removed; DMSO was added, and the absorbance was read at 540 nm with a BioTek 96-well plate reader.

MCF-7 xenograft = conditions: 100-fold higher dosing than HBB (Ma et al.); cited from earlier work
[4] = test system: cytochrome P450 reductase (CPR); test: CPR-mediated reduction of cytochrome c; format: biochemical; conditions: 1 and 10 mM
Experimental: In a quartz cuvette, reduction of cytochrome c reaction was initiated by addition of CPR (final concentration 0.2 mg/mL) to 1 mL potassium phosphate buffer (0.3 M, pH=8.3) containing cytochrome c ([…]) and NADPH 50 ([…]). Absorbance at 550 nm was monitored real time by a Cary 50 UV-Vis Spectrophotometer (Agilent, Santa Clara, Calif.).

MCF-7 cells [5] = test: Clonogenicity of MCF-7 cells; format: cell-based, human; conditions: 1 mM, 24 hours treatment, 2 weeks culture
Experimental: FIG. 9A. […] After 24 hours of culture, the medium was then removed followed by addition of CM to the plates (left panel). The plates were then cultured for 2 weeks and at the endpoint the cell colonies were stained with crystal violet and the colonies counted. […] FIG. 9B.

MCF-7 cells [6] = test: Cellular EET levels by LC-ESI/MS/MS; format: cell-based, human; conditions: metformin 5 mM, 6 hours
Experimental: Samples were submitted to liquid chromatography-electrospray ionization/multiple reaction monitoring/mass spectrometry (LC-ESI/MRM/MS) analysis in a Thermo Electron Quantum Discovery Max triple quadrupole mass spectrometer (Thermo Finnigan, San Jose, Calif.) coupled with an Agilent 1100 HPLC (Santa Clara, Calif.), using argon as the collision gas. Negative ion monitoring was performed at the following diagnostic product ions: 319 m/z→155 m/z for 8,9-EET; 319 m/z→179 m/z for 11,12-EET; 319 m/z→219 m/z for 14,15-EET; 339 m/z→163 m/z for 8,9-[13C20]EET; 339 m/z→233 m/z for 11,12-[13C20]EET; and 339 m/z→259 m/z for 14,15-[^13C20]EET. Base-line resolution of EET regioisomers was achieved on a Phenomenex Luna C18 (2) reverse phase capillary column (250×0.5 mm, 5-μm particles) using the following mobile phase combinations: isocratic 5% B for 5 min, gradient 5-70% B for 5 min, hold at 70% for 30 min and then 95% for 10 min; A: 0.01% acetic acid in water, B: 0.01% acetic acid in acetonitrile; […] flow rate. A standard curve was obtained by linear regression of the peak area ratio of authentic EET regioisomers against internal standards. The amount of EETs in samples was calculated according to the standard curve. The (±)-5,6-EET regioisomer was not measured because it undergoes rapid internal degradation. […]

CYP2J2 [7] = molecular target: T1, CYP2J2 (Homo sapiens, UniProt P51589); test: CYP2J2 epoxygenase activity; conditions: 0.75, 1.5 or 3 mM
T1 sequence (P51589 1-502): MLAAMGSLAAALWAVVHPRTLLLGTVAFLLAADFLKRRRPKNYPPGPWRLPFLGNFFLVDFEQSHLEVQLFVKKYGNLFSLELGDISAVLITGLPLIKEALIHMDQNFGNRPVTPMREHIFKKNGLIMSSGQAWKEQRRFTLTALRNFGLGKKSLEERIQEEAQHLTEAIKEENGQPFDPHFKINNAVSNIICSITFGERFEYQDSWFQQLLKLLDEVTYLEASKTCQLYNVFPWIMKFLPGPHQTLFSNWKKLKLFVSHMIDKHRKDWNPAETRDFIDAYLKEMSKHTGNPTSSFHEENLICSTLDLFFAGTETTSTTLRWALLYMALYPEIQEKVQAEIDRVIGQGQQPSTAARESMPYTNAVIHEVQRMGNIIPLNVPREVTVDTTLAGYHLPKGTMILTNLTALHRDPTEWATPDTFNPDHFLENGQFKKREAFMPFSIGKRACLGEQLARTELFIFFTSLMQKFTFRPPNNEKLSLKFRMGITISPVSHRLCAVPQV

MCF-7 cells [8] = test: Cellular ATP by luminescent assay; format: cell-based, human; conditions: 6 hours of treatment; metformin 5 mM
Experimental: Cells were seeded in 96-well tissue culture plate in 100 μL medium per well. After treatment with either vehicle or testing compound for an appropriate length of time, 50 μL mammalian cell lysis solution was added to each well and the plate was shaken for 5 minutes on an orbital shaker. To each well, 50 μL luminescent substrate and luciferase solution were then added. After incubation in the dark for 10 minutes, the luminescence measured. Cellular ATP levels were then calculated against a standard curve generated with ATP standards of known concentration.

CYP2C8 = molecular target: T2, CYP2C8 (Homo sapiens, UniProt P10632); test: Binding to CYP nanodiscs (CYP2C8)
T2 sequence (P10632 1-490): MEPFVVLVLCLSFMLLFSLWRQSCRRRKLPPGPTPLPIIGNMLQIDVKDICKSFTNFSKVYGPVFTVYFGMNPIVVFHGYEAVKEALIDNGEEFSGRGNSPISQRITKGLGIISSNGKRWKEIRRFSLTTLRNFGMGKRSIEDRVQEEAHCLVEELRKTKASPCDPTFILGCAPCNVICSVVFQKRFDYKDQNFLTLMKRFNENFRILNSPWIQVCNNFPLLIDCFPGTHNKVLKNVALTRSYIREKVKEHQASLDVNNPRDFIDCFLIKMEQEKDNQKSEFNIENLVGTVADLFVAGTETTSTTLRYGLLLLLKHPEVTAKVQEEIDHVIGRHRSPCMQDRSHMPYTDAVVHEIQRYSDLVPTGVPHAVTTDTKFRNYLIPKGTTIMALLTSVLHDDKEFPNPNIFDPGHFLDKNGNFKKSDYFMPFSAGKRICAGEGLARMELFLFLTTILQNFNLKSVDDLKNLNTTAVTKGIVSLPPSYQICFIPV

CYP2J2 [9] = molecular target: T1, CYP2J2; test: Binding to CYP nanodiscs (CYP2J2)
MCF-7 cells [10] = test: Measurement of OCR and ECAR (extracellular flux), MCF-7; format: cell-based, human; conditions: t-AUCB 2.5, 5 μM, metformin 2.5, 5 mM, HBB 20, 40 μM, rotenone 1 μM
Experimental: Cells were maintained in growth medium consisting of 10% FBS at 37° C. with 5% CO2 and seeded at 100,000 cells per well in XF24-well cell culture microplates (Seahorse Bioscience, North Billirica, Mass.). Concentrated stocks of HBB were prepared in DMSO. HBB was diluted to 10× working concentration in XF assay medium (a non-buffered medium including 2 mM L-glutamine but no sodium bicarbonate (buffering agent), glucose, or sodium pyruvate). Assays were performed in the XF Extracellular Flux Analyzer (Seahorse Bioscience that measures uptake and excretion of metabolic end products in real time). Oxygen consumption rate (OCR) and extracellular acidification rate (ECAR) were measured using an XF Assay Kit. OCR is reported in pmoles/minute and ECAR in mpH/minute. Before analysis, the cells were switched from culture medium to XF assay medium. After baseline measurements, 75 μl of HBB prepared in assay medium was injected into each well to reach final working concentrations. After addition of HBB, OCR and ECAR were measured at 18-minute intervals. […] There were 6 replicates for the studies of the 3-18 and 4-14 cell lines.

[11] = read-out: IC50, MCF-7 breast cancer cell line

Compound: CCCCCC1OC1C/C=C\C/C=C\C/C=C\CCCC(=O)O (racemic) [(±)-14,15-EET, (±)-14,15-(5Z,8Z,11Z)-EET]
- AMPK phosphorylation (pAMPK) (MCF-7 cells [1]; 1 μM, 24 hours, MCF-7): suppression of pAMPKc
- mitochondrial membrane potential (ΔΨm), JC-1 (MCF-7 cells [2]): increased mitochondrial cross membrane potential
- mitochondrial membrane potential (ΔΨm), JC-1 (MDA-MB-231 cells): increased mitochondrial membrane potential
- AMPK phosphorylation (MDA-MB-231 cell line): no effect on AMPK phosphorylation
- Stat3 phosphorylation on Y705 and S727 (MCF-7 cells [3]): activated
- total mTOR level (MCF-7 cells [3]): increased

Compound: CCCCCCNC(=N)NC(=N)NCc1ncc[nH]1 [HIB, N1-hexyl-N5-[(1H-imidazol-2-yl)methyl]-biguanide]
- pIC50 (MCF-7; [11]): ~3.30
- pIC50 (MCF-7; read-out: IC50 MCF-7): 3.30

Compound: CCCCCCNC(=N)NC(=N)NCc1ccncc1 [HPB, N1-hexyl-N5-(pyridin-4-ylmethyl) biguanide]
- pIC50 (MCF-7; [11]): 4.40
- pIC50 (MCF-7; read-out: IC50 MCF-7): 4.40

Compound: CCCCNC(=N)N=C(N)N [buformin, reference compound]
- pIC50 (MCF-7; read-out: IC50 MCF-7): < 2.00

Compound: CN(C)C(=N)N=C(N)N [metformin]
- activity on the MCF-7 xenograft (MCF-7 xenograft): little activity
- CPR-mediated reduction of cytochrome c [4]: not affected
- CPR-mediated reduction of cytochrome c ([4]; listed as Metformin): failed to inhibit
- pIC50 (MCF-7; read-out: IC50 MCF-7): 2.30
- CYP3A4 protein levels (MCF-7 cells [1]; 1 mM, 48 hours): did not affect; also recorded: did not change CYP3A4 protein levels
- onset of AMPK activation (phosphorylation) (MCF-7 cells [1]; HBB 20 μM, metformin 5 mM): first detectable after 6 hours
- clonogenicity (MCF-7 cells [5]): Inhibits Clonogenicity
- cellular EET levels (MCF-7 cells [6]): reduced
- inhibition of CYP2J2 epoxygenase activity (CYP2J2 [7]): not inhibited
- total cellular ATP levels (MCF-7 cells [8]): unchanged; also recorded: failed to deplete cellular ATP
- binding to CYP2C8 (CYP2C8): binds
- binding to CYP2J2 (CYP2J2 [9]): binds
- extracellular acidification rate (ECAR) (MCF-7 cells [10]): marginal
- oxygen consumption rate (OCR) (MCF-7 cells [10]): marginal reduction of OCR

Compound: N=C(N)/N=C(\N)NCCc1ccccc1 [phenformin, reference compound]
- pIC50 (MCF-7; read-out: IC50 MCF-7): 2.15

Compound: C=C(C)[C@H]1Cc2c(ccc3c2O[C@@H]2COc4cc(OC)c(OC)cc4[C@@H]2C3=O)O1 [rotenone]
- extracellular acidification rate (ECAR) (MCF-7 cells [10]): Reduction of OCR and ECAR was highly significant
- oxygen consumption rate (OCR) (MCF-7 cells [10]): Reduction of OCR and ECAR was highly significant
